According to patent publication US9278942B2, “Non-steroidal compounds as androgen receptor modulators” (FLX Discoveries Oy, priority 2011, dated 2016):

Target: T1, human AR (Homo sapiens, UniProt P10275)
T1 construct: expressed in transfected cells; host or cells: COS-1
T1 sequence (P10275 1-920): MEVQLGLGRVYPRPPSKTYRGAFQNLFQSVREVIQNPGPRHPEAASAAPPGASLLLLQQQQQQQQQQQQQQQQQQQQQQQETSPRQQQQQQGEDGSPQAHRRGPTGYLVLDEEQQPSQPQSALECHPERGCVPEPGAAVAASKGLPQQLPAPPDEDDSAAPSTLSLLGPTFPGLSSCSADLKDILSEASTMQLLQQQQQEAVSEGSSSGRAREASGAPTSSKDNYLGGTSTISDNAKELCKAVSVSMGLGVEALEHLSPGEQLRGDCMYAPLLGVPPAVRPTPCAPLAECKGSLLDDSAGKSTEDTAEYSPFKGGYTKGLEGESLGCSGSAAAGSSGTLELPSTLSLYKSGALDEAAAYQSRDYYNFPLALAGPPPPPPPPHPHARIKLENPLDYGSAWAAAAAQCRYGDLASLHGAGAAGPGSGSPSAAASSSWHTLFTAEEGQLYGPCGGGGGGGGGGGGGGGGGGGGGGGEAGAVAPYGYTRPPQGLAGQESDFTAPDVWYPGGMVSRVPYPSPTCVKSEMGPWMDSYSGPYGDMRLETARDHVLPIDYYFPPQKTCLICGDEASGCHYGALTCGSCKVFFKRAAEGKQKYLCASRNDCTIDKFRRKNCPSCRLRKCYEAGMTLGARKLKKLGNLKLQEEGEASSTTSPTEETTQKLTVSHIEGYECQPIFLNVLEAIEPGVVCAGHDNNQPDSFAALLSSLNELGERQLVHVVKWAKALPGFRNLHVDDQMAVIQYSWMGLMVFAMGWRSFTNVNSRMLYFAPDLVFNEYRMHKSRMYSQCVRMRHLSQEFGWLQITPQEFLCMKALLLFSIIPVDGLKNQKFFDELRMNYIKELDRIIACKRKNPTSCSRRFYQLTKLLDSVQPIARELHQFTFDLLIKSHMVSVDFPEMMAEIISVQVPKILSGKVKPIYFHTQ
Test: Competitive AR binding assay against [3H]-R1881 in transiently transfected COS-1 cells
Details: Table 1; compound 13.4 μM; [3H]-R1881 1.34 nM; complete inhibition equals 100%
Description: Competitive AR Binding Assay.
AR binding was measured by a competitive assay against [^3H]-R1881 (PerkinElmer) in transiently transfected COS-1 cells. One day before transfection, COS-1 cells were seeded into 2 ml of DMEM (Dulbecco's modified Eagle medium, Gipco) with 10% dextran-charcoal-treated fetal bovine serum and 0.25% (vol/vol) Penicillin-Streptomysin (Euroclone) at a density of 140×10^3 cells/well. After medium change to DMEM 2.5% FBS, the cells were transfected for 24 hours with 10 ng/well of human AR expression vector pSG5 hAR by using the TransIT method (Micrus Bio TransIT LT1, Transfection Reagent). After 36 hours, the cells where treated with tested compounds using 10000 fold molarities compared to labelled R1881 (1.34 nM). After 2 hours of incubation at 37° C., the medium was removed. The cells were removed from the wells to 150 μl of 1× phosphate buffered saline (PBS), transferred to Eppendorf tubes and centrifuged at 4° C. using 4000×g for 5 min, and then washed twice with 150 μl of PBS. The cell pellets were dissolved to 50 μl of 0.5M NaOH and incubated for 15 min at 56° C., after which the samples (three replicates for each sample compound) were transferred to liquid twinkle tubes with 3 ml of OptiPhase HiSafe 3 twinkle solution (PerkinElmer) and radioactivity of AR-bound [^3H]-R1881 determined. The results were measured with LKB WALLAC 1214 racbeta equipment. The ability of test compounds to bind AR is reported as reduction in bound radioactivity obtained with 1.34 nM [^3H]-R1881.
The results (% inhibition) were calculated as: % inhibition=100−[100×(averagecompound/average[3H]-R1881)].

Compared with CCCCN1C(c2cccc(Cl)c2)=NOC1(C)Cc1ccccc1 (stereo not drawn) [Example 50b, 5-Benzyl-4-butyl-3-(3-chloro-phenyl)-5-methyl-4,5-dihydro-[1,2,4]oxadiazole], CCCCN1C(Cc2ccccc2)=NOC1(C)Cc1ccccc1 (stereo not drawn) [Example 55b, 3,5-Dibenzyl-4-butyl-5-methyl-4,5-dihydro-[1,2,4]oxadiazole] is lower in “Inhibition of [3H]-R1881 binding at 1.34 nM ± S.D.” value (from here on “Inhibition of [3H]-R1881 binding”): 55.7 ± 1.9% for the first, 32.7 ± 3.5% for the second.

Going from O=[N+]([O-])c1ccc(C2=NOC3CCCCC23)cc1 (single isomer, unassigned) [Example 34b, 3-(4-Nitro-phenyl)-3a,4,5,6,7,7a-hexahydro-benzo[d]-isoxazole] to Clc1cccc(C2=NOC3CCCCC23)c1 (single isomer, unassigned) [Example 31a, 3-(3-Chloro-phenyl)-3a,4,5,6,7,7a-hexahydro-benzo[d]-isoxazole], the “Inhibition of [3H]-R1881 binding” value rises from 0% to 20.3 ± 9.9%.

Compared with COc1ccc(CC2=NOC(C)(Cc3ccccc3)N2CC(C)C)cc1 (single isomer, unassigned) [Example 65b, 5-Benzyl-4-isobutyl-3-(4-methoxy-benzyl)-5-methyl-4,5-dihydro-[1,2,4]oxadiazole], CC(C)CN1C(c2ccc([N+](=O)[O-])cc2)=NOC1(C)Cc1ccccc1 (single isomer, unassigned) [Example 61b, 5-Benzyl-4-isobutyl-5-methyl-3-(4-nitro-phenyl)-4,5-dihydro-[1,2,4]oxadiazole] is lower in “Inhibition of [3H]-R1881 binding” value: 13.5 ± 1.6% for the first, 0% for the second.

First: COc1ccc(C2=NOC(Cc3ccccc3)(c3ccccc3)C2)cc1 (single isomer, unassigned) [Example 14b, 5-Benzyl-3-(4-methoxyphenyl)-5-phenyl-4,5-dihydro-isoxazole]
Second: COc1cccc(C2=NOC(Cc3ccccc3)(c3ccccc3)C2)c1 (single isomer, unassigned) [Example 13a, 5-Benzyl-5-phenyl-3-(3-methoxyphenyl)-4,5-dihydro-isoxazole]
The “Inhibition of [3H]-R1881 binding” value of the first is lower: 0% for the first, 31.1 ± 5.6% for the second.

First: COc1ccccc1C1=NOC(Cc2ccccc2)(c2ccccc2)C1 (single isomer, unassigned) [Example 12b, 5-Benzyl-3-(2-methoxyphenyl)-5-phenyl-4,5-dihydro-isoxazole]
Second: COc1cccc(C2=NOC(Cc3ccccc3)(c3ccccc3)C2)c1 (single isomer, unassigned) [Example 13b, 5-Benzyl-5-phenyl-3-(3-methoxyphenyl)-4,5-dihydro-isoxazole]
The “Inhibition of [3H]-R1881 binding” value of the first is higher: 30.2 ± 6.0% for the first, 1.6 ± 6.6% for the second.

First: COc1ccc(C2=NOC(Cc3ccccc3)(c3ccccc3)C2)cc1 (single isomer, unassigned) [Example 14a, 5-Benzyl-3-(4-methoxyphenyl)-5-phenyl-4,5-dihydro-isoxazole]
Second: CC1(Cc2ccccc2)CC(c2ccccc2Cl)=NO1 (stereo not drawn) [Example 5b, 5-Benzyl-3-(2-chlorophenyl)-5-methyl-4,5-dihydroisoxazole]
The “Inhibition of [3H]-R1881 binding” value of the first is lower: 29.6 ± 3.4% for the first, 59.7 ± 2.7% for the second.

Going from Fc1ccccc1C1=NOC2CCCCC12 (single isomer, unassigned) [Example 27a, 3-(2-Fluoro-phenyl)-3a,4,5,6,7,7a-hexahydro-benzo[d]-isoxazole] to Clc1ccccc1C1=NOC2CCCCC12 (single isomer, unassigned) [Example 30b, 3-(2-Chloro-phenyl)-3a,4,5,6,7,7a-hexahydro-benzo[d]-isoxazole], the “Inhibition of [3H]-R1881 binding” value rises from 17.0 ± 7.0% to 66.3 ± 6.5%.

Compared with COc1ccc(CC2=NOC(C)(Cc3ccccc3)N2CC(C)C)cc1 (single isomer, unassigned) [Example 65a, 5-Benzyl-4-isobutyl-3-(4-methoxy-benzyl)-5-methyl-4,5-dihydro-[1,2,4]oxadiazole], CC(C)CN1C(c2ccc([N+](=O)[O-])cc2)=NOC1(C)Cc1ccccc1 (single isomer, unassigned) [Example 61a, 5-Benzyl-4-isobutyl-5-methyl-3-(4-nitro-phenyl)-4,5-dihydro-[1,2,4]oxadiazole] is higher in “Inhibition of [3H]-R1881 binding” value: 0% for the first, 14.9 ± 1.8% for the second.

Compared with Clc1cccc(C2=NOC3CCCCC23)c1 (single isomer, unassigned) [Example 31b, 3-(3-Chloro-phenyl)-3a,4,5,6,7,7a-hexahydro-benzo[d]-isoxazole], Clc1ccccc1C1=NOC2CCCCC12 (single isomer, unassigned) [Example 30a, 3-(2-Chloro-phenyl)-3a,4,5,6,7,7a-hexahydro-benzo[d]-isoxazole] is higher in “Inhibition of [3H]-R1881 binding” value: 0% for the first, 30.2 ± 3.8% for the second.

Going from Fc1ccccc1C1=NOC2CCCCC12 (single isomer, unassigned) [Example 27b, 3-(2-Fluoro-phenyl)-3a,4,5,6,7,7a-hexahydro-benzo[d]-isoxazole] to O=[N+]([O-])c1ccc(C2=NOC3CCCCC23)cc1 (single isomer, unassigned) [Example 34a, 3-(4-Nitro-phenyl)-3a,4,5,6,7,7a-hexahydro-benzo[d]-isoxazole], the “Inhibition of [3H]-R1881 binding” value rises from 0% to 34.7 ± 2.7%.

Same assay, conditions: Table 1; compound 13.4 μM; [3H]-R1881 1.34 nM; complete inhibition equals 100%; read-out: Inhibition of [3H]-R1881 binding at 1.34 nM ± S.D.

First: CC1(Cc2ccccc2)CC(c2ccc(C#N)cc2)=NO1 (stereo not drawn) [Example 8ab, 4-(5-Benzyl-5-methyl-4,5-dihydro-isoxazol-3-yl)-benzonitrile]
Second: COc1cccc(C2=NOC(C)(Cc3ccccc3)C2)c1 (stereo not drawn) [Example 2ab, 5-Benzyl-3-(3-methoxyphenyl)-5-methyl-4,5-dihydro-isoxazole]
The inhibition at 13.4 µM of the first is lower: 30.4 ± 2.9% for the first, 64.2 ± 2.2% for the second.

First: CCCCN1C(CCc2ccccc2)=NOC1(C)Cc1ccccc1 (stereo not drawn) [Example 57ab, 5-Benzyl-4-butyl-5-methyl-3-phenethyl-4,5-dihydro-[1,2,4]oxadiazole]
Second: CCCCN1C(CCCc2ccccc2)=NOC1(C)Cc1ccccc1 (stereo not drawn) [Example 59ab, 5-Benzyl-4-butyl-5-methyl-3-(3-phenyl-propyl)-4,5-dihydro-[1,2,4]oxadiazole]
The inhibition at 13.4 µM of the first is higher: 48.7 ± 3.3% for the first, 39.1 ± 2.6% for the second.

Compared with CC1(Cc2ccccc2)CC(c2ccccc2Cl)=NO1 (stereo not drawn) [Example 5a, 5-Benzyl-3-(2-chlorophenyl)-5-methyl-4,5-dihydroisoxazole], CCCCN1C(c2cccc(Cl)c2)=NOC1(C)Cc1ccccc1 (stereo not drawn) [Example 50a, 5-Benzyl-4-butyl-3-(3-chloro-phenyl)-5-methyl-4,5-dihydro-[1,2,4]oxadiazole] is higher in inhibition at 13.4 µM: 42.7 ± 6.6% for the first, 63.8 ± 1.8% for the second.

Compared with CC(C)CN1C(CCc2ccccc2)=NOC1(C)Cc1ccccc1 (stereo not drawn) [Example 66ab, 5-Benzyl-4-isobutyl-5-methyl-3-phenethyl-4,5-dihydro-[1,2,4]oxadiazole], CCCCN1C(Cc2ccccc2)=NOC1(C)Cc1ccccc1 (stereo not drawn) [Example 55a, 3,5-Dibenzyl-4-butyl-5-methyl-4,5-dihydro-[1,2,4]oxadiazole] is higher in inhibition at 13.4 µM: 17.8 ± 2.4% for the first, 35.1 ± 5.8% for the second.

Going from CCCCN1C(CCc2ccc(OC)cc2)=NOC1(C)Cc1ccccc1 (stereo not drawn) [Example 58ab, 5-Benzyl-4-butyl-3-[2-(4-methoxy-phenyl)-ethyl]-5-methyl-4,5-dihydro-[1,2,4]oxadiazole] to CCCCN1C(c2cccc3ccccc23)=NOC1(C)Cc1ccccc1 (stereo not drawn) [Example 53ab, 5-Benzyl-4-butyl-5-methyl-3-napthalen-1-yl-4,5-dihydro-[1,2,4]oxadiazole], the inhibition at 13.4 µM rises from 8.2 ± 1.3% to 29.8 ± 10.8%.
